For 6 compounds, Antipapilloma activity and Dose results are on record in ChEMBL document CHEMBL1121704, “Fluorinated retinoic acids and their analogues. 2. Synthesis and biological activity of aromatic 4-fluoro analogues” (1981).

What all share (type): functional
For test [1], the system named is Mus musculus. Kind of test: In vivo anti-papilloma activity against chemically induced skin papillomas in mice at dose of 80(mg/kg)/day.
The test system of test [2] is Mus musculus. The experiment in a line: In vivo anti-papilloma activity against chemically induced skin papillomas in mice at dose of 40 mg/kg/day.
Test [3] deals with Mus musculus. The experiment in a line: In vivo anti-papilloma activity against chemically induced skin papillomas in mice at dose of 10 mg/kg/day.
The species named for test [4] is Mus musculus. The experiment in a line: Hypervitaminosis dose determined as a measure of toxicity.
Test [5] deals with Mus musculus. Kind of test: In vivo anti-papilloma activity against chemically induced skin papillomas in mice at dose of 20(mg/kg)/day.
Test [6] has as its system Mus musculus. Kind of test: In vivo anti-papilloma activity against chemically induced skin papillomas in mice at dose of 5(mg/kg)/day.

Structures are written as SMILES.

Turning to `CCOC(=O)/C=C(C)/C=C/C=C(C)/C=C/c1c(C)cc(OC)c(C)c1C` [ETRETINATE], the Antipapilloma activity in test [1] is reported as -47%; in test [2], -33%; in test [3] it was 9%; in test [5], -29%. This compound showed a Dose in test [4] of 100 mg/kg/day.
On to `CCOC(=O)/C=C(C)/C(F)=C/C=C(C)/C=C/c1c(Cl)cc(OC)c(C)c1C`, for which the Antipapilloma activity in test [6] is recorded as -41%; in test [3], -60%; in test [5], -59%. The compound also showed a Dose in test [4] of 50 mg/kg/day.
For the compound `CCOC(=O)/C=C(C)/C(F)=C/C=C(C)/C=C/c1c(C)cc(OC)c(C)c1C`, the Antipapilloma activity is reported as -43% in test [6]; -82% in test [1]; -69% in test [2]; -76% in test [3]; -62% in test [5]. The compound also yielded a Dose in test [4] of 50 mg/kg/day.
For `CCOC(=O)/C=C(C)/C(F)=C/C=C(C)/C=C/c1c(C)cc(C)c(Cl)c1C`, the Antipapilloma activity is listed as -64% in test [1], -34% in test [2] and -29% in test [5]. Besides, the Dose in test [4] is above 200 mg/kg/day.
The compound `CCOC(=O)/C=C(C)/C(F)=C/C=C(C)/C=C/c1c(C)cc(OC)c(C)c1Cl` yielded a Dose in test [4] of 50 mg/kg/day. For the same compound, the Antipapilloma activity in test [5] was -73%.
As to `CCOC(=O)/C=C(C)/C(F)=C/C=C(C)/C=C/c1c(Cl)cc(OC)c(C)c1Cl`, the Antipapilloma activity in test [6] is -58%. Further, the Dose in test [4] stood at 25 mg/kg/day.
